According to patent US11209437B2, “Fluorescent probe and preparation method and use thereof” (Fluorescence Diagnosis (shanghai) Biotech Company Ltd., priority 2016, dated 2021):

Tests used:
[1] = Viscosity responsiveness: fluorescence emission spectra of probes in glycerol and methanol; assay type: physicochemical; conditions: for Emission wavelength: excited at maximum excitation wavelength of each probe; for Fluorescence ratio in glycerol to methanol: probe 1×10^−5 M
Outline: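 Each probe, from a 1×10^−2 M DMSO stock, was diluted to a final 1×10^−5 M in glycerol and in methanol. Fluorescence emission spectra were then recorded under identical conditions at each probe's maximum excitation wavelength.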

[2] = Fluorescence of free probe prior to binding to a protein tag; assay type: physicochemical
CLIP protein tags = test: Fluorescence activation of probe after incubation with corresponding protein tag (CLIP); assay type: biochemical; conditions: probe 5 μM, protein tag 10 μM, 37° C., 1 hr
Experimental: Probes were mixed with corresponding protein tags to obtain mixed samples, in which the final probe concentration was 5 μM, and the final protein tag concentration was 10 μM. The mixed samples were incubated 37° C. for 1 hr, fluorescence spectrophotometer was used to detect the change in fluorescence intensity, and the results are shown in Table 1.
From the quantum yield of probe bound to protein tag, after reacting with the protein tags, the probes of the Examples could be detected to have significant signal enhancement in corresponding excitation transmission channels, the fluorescence activation multiple reached several hundreds to a thousand or more, and the brightness was high, which illustrates that after the probes of the Examples are bound to the protein tags, fluorescence of the probes can be activated, and the probes have good fluorescent molecular switching properties. In contrast, though the fluorescence of the reference probes could also be activated, the quantum yield of activated fluorescence was very low, and the brightness was very poor. In particular, in view of comparison results between probe 98 and reference probe 99, probe 101 and reference probe 102, probe 103 and reference probe 104, probe 105 and reference probe 106, probe 107 and reference probe 108, probe 109 and reference probe 110, probe 111 and reference probe 112, probe 114 and reference probe 115, probe 117 and reference probe 118, probe 120 and reference probe 121 in Table 1, for the same fluorescent dye, when the ligand is connected to the electron donor part of the fluorescent dye, the fluorescence activation brightness of the probe is much higher than the reference probe in which ligand is connected to the electron acceptor part of the fluorescent dye.

SNAP protein tags = biological target: T1, SNAP protein tags (Homo sapiens, UniProt P16455, A127T/A154D/C150Q/C62A/E30R/G131K/G132T/G153L/K125A/K32I/L33F/M134L/N157G/Q115S/Q116H/R128A/R135S/S151G/S152D/S159E); test: Fluorescence activation of probe after incubation with corresponding protein tag (SNAP); assay type: biochemical; conditions: probe 5 μM, protein tag 10 μM, 37° C., 1 hr
T1 sequence (P16455 1-182 E30R/K32I/L33F/C62A/Q115S/Q116H/K125A/A127T/R128A/G131K/G132T/M134L/R135S/C150Q/S151G/S152D/G153L/A154D/N157G/S159E): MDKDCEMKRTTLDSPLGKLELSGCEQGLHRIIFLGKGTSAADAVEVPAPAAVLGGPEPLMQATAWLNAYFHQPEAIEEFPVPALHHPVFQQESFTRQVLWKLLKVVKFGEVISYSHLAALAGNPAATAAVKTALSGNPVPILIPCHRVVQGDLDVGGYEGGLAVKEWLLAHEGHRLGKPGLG
Outline: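 Probe (5 μM final) mixed with CLIP or SNAP protein tag (10 μM final) and incubated 1 hr at 37° C. Fluorescence intensity change measured by fluorescence spectrophotometer, with quantum yield of tag-bound probe determined.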

## CN(CCOC(=O)NCc1ccc(COc2nccc(N)n2)cc1)c1ccc(/C=C(\C#N)C(=O)OC(C)(C)C)cc1 [probe 7]
[1]
  Emission wavelength: 480 nm
  Fluorescence ratio in glycerol to methanol: 1455
[2]
  Quantum yield of free probe: <0.001
CLIP protein tags
  Fluorescence activation multiple: 1502
  Quantum yield of probe bound to protein tag: 0.23

## CN(CCOC(=O)NCc1ccc(COc2nccc(N)n2)cc1)c1ccc(/C=C(\C#N)c2nc3ccccc3o2)cc1 [probe 8]
[1]
  Emission wavelength: 510 nm
  Fluorescence ratio in glycerol to methanol: 320
[2]
  Quantum yield of free probe: 0.0018
CLIP protein tags
  Fluorescence activation multiple: 68
  Quantum yield of probe bound to protein tag: 0.12

## CN(CCOC(=O)NCc1ccc(COc2nccc(N)n2)cc1)c1ccc(/C=C(\C#N)c2nc3ccccc3s2)cc1 [probe 9]
[1]
  Emission wavelength: 531 nm
  Fluorescence ratio in glycerol to methanol: 851
[2]
  Quantum yield of free probe: <0.001
CLIP protein tags
  Fluorescence activation multiple: 745
  Quantum yield of probe bound to protein tag: 0.21

## CN1C(=O)/C(=C/c2ccc(N(C)CCOC(=O)NCc3ccc(COc4nccc(N)n4)cc3)cc2)N=C1/C=C/c1ccccc1 [probe 17]
[1]
  Emission wavelength: 580 nm
  Fluorescence ratio in glycerol to methanol: 402
[2]
  Quantum yield of free probe: <0.001
CLIP protein tags
  Fluorescence activation multiple: 498
  Quantum yield of probe bound to protein tag: 0.15

## CN(CCOC(=O)NCc1ccc(COc2nccc(N)n2)cc1)c1ccc(C2=C(C#N)C(=C(C#N)C#N)OC2(C)C)cc1 [probe 20]
[1]
  Emission wavelength: 535 nm
  Fluorescence ratio in glycerol to methanol: 341
[2]
  Quantum yield of free probe: <0.001
CLIP protein tags
  Fluorescence activation multiple: 398
  Quantum yield of probe bound to protein tag: 0.32

## CN(CCOC(=O)NCc1ccc(COc2nccc(N)n2)cc1)c1cc2sc(/C=C(\C#N)C(=O)OC(C)(C)C)cc2s1 [probe 27]
[1]
  Emission wavelength: 555 nm
  Fluorescence ratio in glycerol to methanol: 1134
[2]
  Quantum yield of free probe: <0.001
CLIP protein tags
  Fluorescence activation multiple: 665
  Quantum yield of probe bound to protein tag: 0.39

## CN(CCOC(=O)NCc1ccc(COc2nccc(N)n2)cc1)c1cc2sc(/C=C(\C#N)c3nc4ccccc4o3)cc2s1 [probe 28]
[1]
  Emission wavelength: 590 nm
  Fluorescence ratio in glycerol to methanol: 1132
[2]
  Quantum yield of free probe: <0.001
CLIP protein tags
  Fluorescence activation multiple: 551
  Quantum yield of probe bound to protein tag: 0.31

## CN(CCOC(=O)NCc1ccc(COc2nccc(N)n2)cc1)c1cc2sc(/C=C(\C#N)c3nc4ccccc4s3)cc2s1 [probe 29]
[1]
  Emission wavelength: 610 nm
  Fluorescence ratio in glycerol to methanol: 998
[2]
  Quantum yield of free probe: <0.001
CLIP protein tags
  Fluorescence activation multiple: 621
  Quantum yield of probe bound to protein tag: 0.33

## CN(CCOC(=O)NCc1ccc(COc2nccc(N)n2)cc1)c1ccc2cc(/C=C(\C#N)C(=O)OC(C)(C)C)sc2c1 [probe 34]
[1]
  Emission wavelength: 570 nm
  Fluorescence ratio in glycerol to methanol: 1774
[2]
  Quantum yield of free probe: <0.001
CLIP protein tags
  Fluorescence activation multiple: 857
  Quantum yield of probe bound to protein tag: 0.48

## CN(CCOC(=O)NCc1ccc(COc2nccc(N)n2)cc1)c1ccc2nc(/C=C(\C#N)C(=O)OC(C)(C)C)oc2c1 [probe 45]
[1]
  Emission wavelength: 603 nm
  Fluorescence ratio in glycerol to methanol: 752
[2]
  Quantum yield of free probe: <0.001
CLIP protein tags
  Fluorescence activation multiple: 958
  Quantum yield of probe bound to protein tag: 0.29

## CN(CCOC(=O)NCc1ccc(COc2nccc(N)n2)cc1)c1ccc2nc(/C=C(\C#N)C(=O)OC(C)(C)C)sc2c1 [probe 53]
[1]
  Emission wavelength: 625 nm
  Fluorescence ratio in glycerol to methanol: 401
[2]
  Quantum yield of free probe: <0.001
CLIP protein tags
  Fluorescence activation multiple: 579
  Quantum yield of probe bound to protein tag: 0.18

## CN(CCOC(=O)NCc1ccc(COc2nccc(N)n2)cc1)c1ccc(C#C/C=C(\C#N)C(=O)OC(C)(C)C)cc1 [probe 57]
[1]
  Emission wavelength: 566 nm
  Fluorescence ratio in glycerol to methanol: 762
[2]
  Quantum yield of free probe: <0.001
CLIP protein tags
  Fluorescence activation multiple: 1026
  Quantum yield of probe bound to protein tag: 0.31

## COCCNC(=O)/C(C#N)=C/c1ccc(-c2ccc(N(C)CCOC(=O)NCc3ccc(COc4nccc(N)n4)cc3)cc2)s1 [probe 69]
[1]
  Emission wavelength: 620 nm
  Fluorescence ratio in glycerol to methanol: 217
[2]
  Quantum yield of free probe: <0.001
CLIP protein tags
  Fluorescence activation multiple: 491
  Quantum yield of probe bound to protein tag: 0.27

## COCCNC(=O)/C(C#N)=C/c1cc2cc3sc(N(C)CCOC(=O)NCc4ccc(COc5nccc(N)n5)cc4)cc3cc2s1 [probe 72]
[1]
  Emission wavelength: 640 nm
  Fluorescence ratio in glycerol to methanol: 268
[2]
  Quantum yield of free probe: 0.001
CLIP protein tags
  Fluorescence activation multiple: 486
  Quantum yield of probe bound to protein tag: 0.47

## CN(CCOC(=O)NCc1ccc(COc2nccc(N)n2)cc1)c1ccc(-c2ccc(/C=C(\C#N)C(=O)OC(C)(C)C)s2)s1 [probe 80]
[1]
  Emission wavelength: 655 nm
  Fluorescence ratio in glycerol to methanol: 218
[2]
  Quantum yield of free probe: 0.0011
CLIP protein tags
  Fluorescence activation multiple: 349
  Quantum yield of probe bound to protein tag: 0.38

## CN(CCOC(=O)NCc1ccc(COc2nccc(N)n2)cc1)c1ccc(-c2ccc(/C=C(\C#N)c3nc4ccccc4o3)s2)s1 [probe 81]
[1]
  Emission wavelength: 672 nm
  Fluorescence ratio in glycerol to methanol: 235
[2]
  Quantum yield of free probe: <0.001
CLIP protein tags
  Fluorescence activation multiple: 391
  Quantum yield of probe bound to protein tag: 0.29

## CN(CCOC(=O)NCc1ccc(COc2nccc(N)n2)cc1)c1ccc(-c2ccc(/C=C(\C#N)c3nc4ccccc4s3)s2)s1 [probe 82]
[1]
  Emission wavelength: 681 nm
  Fluorescence ratio in glycerol to methanol: 241
[2]
  Quantum yield of free probe: <0.001
CLIP protein tags
  Fluorescence activation multiple: 321
  Quantum yield of probe bound to protein tag: 0.21

## CC(C)(C)OC(=O)/C(C#N)=C/c1ccc2c(c1)SCCN2CCOC(=O)NCc1ccc(COc2nccc(N)n2)cc1 [probe 84]
[1]
  Emission wavelength: 515 nm
  Fluorescence ratio in glycerol to methanol: 121
[2]
  Quantum yield of free probe: <0.001
CLIP protein tags
  Fluorescence activation multiple: 431
  Quantum yield of probe bound to protein tag: 0.16

## CC1=CC(C)(C)N(CCOC(=O)NCc2ccc(COc3nccc(N)n3)cc2)c2ccc(/C=C(\C#N)C(=O)OC(C)(C)C)cc21 [probe 90]
[1]
  Emission wavelength: 575 nm
  Fluorescence ratio in glycerol to methanol: 109
[2]
  Quantum yield of free probe: <0.001
CLIP protein tags
  Fluorescence activation multiple: 541
  Quantum yield of probe bound to protein tag: 0.28

## CN(CCOC(=O)NCc1ccc(COc2nc(N)nc3[nH]cnc23)cc1)c1ccc(-c2ccc(/C=C(\C#N)C(=O)O)s2)cc1 [probe 117]
[1]
  Emission wavelength: 620 nm
  Fluorescence ratio in glycerol to methanol: 321
[2]
  Quantum yield of free probe: <0.001
SNAP protein tags
  Fluorescence activation multiple: 562
  Quantum yield of probe bound to protein tag: 0.39

## CN(CCOC(=O)NCc1ccc(COc2nc(N)nc3[nH]cnc23)cc1)c1ccc(-c2ccc(/C=C(\C#N)C(=O)O)s2)s1 [probe 120]
[1]
  Emission wavelength: 656 nm
  Fluorescence ratio in glycerol to methanol: 421
[2]
  Quantum yield of free probe: <0.001
SNAP protein tags
  Fluorescence activation multiple: 469
  Quantum yield of probe bound to protein tag: 0.42
